Results reported in patent US9845291B2, “Estrogen receptor modulators and uses thereof” (Genentech, Inc., priority 2014, dated 2017).

Target: estrogen receptor alpha (ESR1) (Homo sapiens, UniProt P03372)
Test: cell-based
Details: for ER-alpha MCF7 HCS Sinf: MCF7 breast cancer cells, 4 hours, plateau of the maximal effect, DMSO and Fulvestrant define 0% and 100% changes in ESR1
Description: Where more than one name is associated with a Formula I compound or intermediate, the chemical structure shall define the compound.
Cell plates were incubated at 37° C., for 4 hours. Fixation and permeabilization were carried out using a Biotek EL406 plate washer and dispenser as follows. […] Samples were incubated 30 minutes. Well contents was aspirated and 50 ul/well of Phosphate Buffered Saline (PBS) containing 0.5% w/v bovine serum albumen, 0.5% v/v Triton X-100 (Antibody Dilution Buffer) was added to each well. Samples were incubated for 30 minutes. Well contents were aspirated and washed 3 times with 100 ul/well of PBS. Immunofluorescence staining of estrogen receptor alpha (ESR1) was carried out using a Biotek EL406 plate washer and dispenser as follows. […] Samples were incubated for 2 hours at room temperature. Samples were washed 4 times with 100 ul/well of PBS. […] Samples were incubated for 2 hours at room temperature. Samples were washed 3 times with 100 ul/well of PBS using a Biotek EL406. Quantitative fluorescence imaging of ESR1 was carried out using a Cellomics Arrayscan V (Thermo). […] Channel 1 (DNA stain) was used to define the nuclear region (Circ). […] Data analysis was carried out using Genedata Screener Software, with DMSO and 5 nM Fulvestrant treated samples being used to define the 0% and 100% changes in ESR1. The “Robust Fit” method was used to define the inflexion point of curve (EC50) and the plateau of the maximal effect (Sin f).

Chain of estrogen receptor alpha (ESR1) (P03372 whole entry): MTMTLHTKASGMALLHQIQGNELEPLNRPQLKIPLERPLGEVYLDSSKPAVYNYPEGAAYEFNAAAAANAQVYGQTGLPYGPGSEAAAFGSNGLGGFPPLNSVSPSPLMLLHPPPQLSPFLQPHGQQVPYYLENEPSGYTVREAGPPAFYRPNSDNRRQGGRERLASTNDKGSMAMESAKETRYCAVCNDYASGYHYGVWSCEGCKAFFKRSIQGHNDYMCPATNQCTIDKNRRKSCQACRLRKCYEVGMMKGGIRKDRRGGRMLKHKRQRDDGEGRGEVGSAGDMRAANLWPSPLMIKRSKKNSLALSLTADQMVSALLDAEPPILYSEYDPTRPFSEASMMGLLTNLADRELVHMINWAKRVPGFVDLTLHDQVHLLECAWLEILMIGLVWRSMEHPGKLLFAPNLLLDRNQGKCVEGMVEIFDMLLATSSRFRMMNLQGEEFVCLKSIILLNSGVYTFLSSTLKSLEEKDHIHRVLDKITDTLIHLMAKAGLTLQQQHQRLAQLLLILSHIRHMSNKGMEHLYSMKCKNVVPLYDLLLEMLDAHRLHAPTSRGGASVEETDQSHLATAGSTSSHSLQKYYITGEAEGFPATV

Structure (SMILES): Oc1cccc([C@@H]2Sc3c(ccc(O)c3F)O[C@@H]2c2ccc(OCCN3CC(CF)C3)cc2)c1 [Example 60, (2R,3S)-5-fluoro-2-(4-(2-(3-(fluoromethyl)azetidin-1-yl)ethoxy)phenyl)-3-(3-hydroxyphenyl)-2,3-dihydrobenzo[b][1,4]oxathiin-6-ol]
- EC50: 15.8 nM
- ER-alpha MCF7 HCS Sinf: −91.9%

Structure (SMILES): CC/C(=C(/c1ccc(OCCN2CC(CF)C2)cc1)c1ccc2[nH]ncc2c1)c1ccc(F)cc1Cl [Example 82, 5-[(E)-2-(2-chloro-4-fluoro-phenyl)-1-[4-[2-[3-(fluoromethyl)azetidin-1-yl]ethoxy]phenyl]but-1-enyl]-1H-indazole]
- EC50: 0.0225 nM
- ER-alpha MCF7 HCS Sinf: −96.9%

Structure (SMILES): Cc1c(-c2ccc(O)cc2)n(Cc2ccc(OC[C@H](C)N3CC[C@@H](CF)C3)cc2)c2ccc(O)cc12 [Example 2, 1-(4-((S)-2-((R)-3-(Fluoromethyl)pyrrolidin-1-yl)propoxy)benzyl)-2-(4-hydroxyphenyl)-3-methyl-1H-indol-5-ol]
- EC50: 1.6 nM
- ER-alpha MCF7 HCS Sinf: −93%

Structure (SMILES): COc1ccc(-c2sc3cc(O)ccc3c2Oc2ccc(OC[C@H](C)N3CC[C@@H](CF)C3)cc2)cc1 [Example 12, 3-(4-((S)-2-((R)-3-(Fluoromethyl)pyrrolidin-1-yl)propoxy)phenoxy)-2-(4-methoxyphenyl)benzo [6]thiophen-6-ol]
- EC50: 310 nM
- ER-alpha MCF7 HCS Sinf: −50%

Structure (SMILES): Cc1cc(-c2c(C)c3cc(O)ccc3n2Cc2ccc(OCCN3CC(CF)C3)cc2)ccc1O [Example 41, 1-[[4-[2-[3-(fluoromethyl)azetidin-1-yl]ethoxy]phenyl]methyl]-2-(4-hydroxy-3-methyl-phenyl)-3-methyl-indol-5-ol]
- EC50: 0.0518 nM
- ER-alpha MCF7 HCS Sinf: −97.8%

Structure (SMILES): Oc1ccc([C@H]2Sc3cc(O)ccc3O[C@H]2c2ccc(OCCN3CC(CF)C3)cc2)cc1 (racemic) [Example 29, 2-(4-(2-(3-(Fluoromethyl)azetidin-1-yl)ethoxy)phenyl)-3-(4-hydroxyphenyl)-2,3-dihydrobenzo[b][1,4]oxathiin-6-ol]
- EC50: 0.55 nM
- ER-alpha MCF7 HCS Sinf: −101%

Structure (SMILES): Cc1c(-c2ccc(O)cc2)n(Cc2ccc(OCCN3CC(CF)C3)cc2)c2cc(F)c(O)cc12 [Example 49, 6-fluoro-1-(4-(2-(3-(fluoromethyl)azetidin-1-yl)ethoxy)benzyl)-2-(4-hydroxyphenyl)-3-methyl-1H-indol-5-ol]
- EC50: 0.187 nM
- ER-alpha MCF7 HCS Sinf: −95.6%

Structure (SMILES): Oc1cccc([C@H]2Sc3cc(O)ccc3O[C@H]2c2ccc(OCCN3CC(CF)C3)cc2)c1 (racemic) [Example 31, 2-(4-(2-(3-(Fluoromethyl)azetidin-1-yl)ethoxy)phenyl)-3-(3-hydroxyphenyl)-2,3-dihydrobenzo[b][1,4]oxathiin-6-ol]
- EC50: 1.1 nM
- ER-alpha MCF7 HCS Sinf: −97%

Structure (SMILES): Oc1ccc(-c2onc(-c3ccccc3Cl)c2-c2ccc(OCCN3CC(CF)C3)cc2)cc1 [Example 14, 4-(3-(2-Chlorophenyl)-4-(4-(2-(3-(fluoromethyl)azetidin-1-yl)ethoxy)phenyl)isoxazol-5-yl)phenol]
- EC50: 0.21 nM
- ER-alpha MCF7 HCS Sinf: −99%

Structure (SMILES): C[C@@H](COc1ccc(C(=O)c2c(-c3ccccc3Cl)noc2-c2ccc(O)cc2)cc1F)N1CC[C@@H](CF)C1 [Example 76, [3-(2-chlorophenyl)-5-(4-hydroxyphenyl)isoxazol-4-yl]-[3-fluoro-4-[(2S)-2-[(3R)-3-(fluoromethyl)pyrrolidin-1-yl]propoxy]phenyl]methanone]
- EC50: 0.091 nM
- ER-alpha MCF7 HCS Sinf: −101%

Structure (SMILES): CS(=O)(=O)c1ccc(-c2ccc3cc(O)ccc3c2Oc2ccc(OCCN3CC(CF)C3)cc2)cc1 [Example 7, 5-(4-(2-(3-(Fluoromethyl)azetidin-1-yl)ethoxy)phenoxy)-6-(4-(methylsulfonyl)phenyl)naphthalen-2-ol]
- EC50: 1.6 nM
- ER-alpha MCF7 HCS Sinf: −95%
